In article PMC9104508, “Antioxidant, Hypoglycemic and Molecular Docking Studies of Methanolic Extract, Fractions and Isolated Compounds from Aerial Parts of Cymbopogon citratus (DC.) Stapf” (Molecules, 2022):
Like-named read-outs stand apart in the source and are kept apart here. Marks after values point to notes of the source that are not given here.

Columns and labels:
[1] = biological target: α-glucosidase (Saccharomyces cerevisiae, UniProt P53341); experiment: α-Glucosidase inhibition assay (pNPG substrate); format: biochemical; settings: for inhibition at 20 µM: read-out: α-Glucosidase Inhibitory Rate
Sequence of α-glucosidase (P53341 whole entry): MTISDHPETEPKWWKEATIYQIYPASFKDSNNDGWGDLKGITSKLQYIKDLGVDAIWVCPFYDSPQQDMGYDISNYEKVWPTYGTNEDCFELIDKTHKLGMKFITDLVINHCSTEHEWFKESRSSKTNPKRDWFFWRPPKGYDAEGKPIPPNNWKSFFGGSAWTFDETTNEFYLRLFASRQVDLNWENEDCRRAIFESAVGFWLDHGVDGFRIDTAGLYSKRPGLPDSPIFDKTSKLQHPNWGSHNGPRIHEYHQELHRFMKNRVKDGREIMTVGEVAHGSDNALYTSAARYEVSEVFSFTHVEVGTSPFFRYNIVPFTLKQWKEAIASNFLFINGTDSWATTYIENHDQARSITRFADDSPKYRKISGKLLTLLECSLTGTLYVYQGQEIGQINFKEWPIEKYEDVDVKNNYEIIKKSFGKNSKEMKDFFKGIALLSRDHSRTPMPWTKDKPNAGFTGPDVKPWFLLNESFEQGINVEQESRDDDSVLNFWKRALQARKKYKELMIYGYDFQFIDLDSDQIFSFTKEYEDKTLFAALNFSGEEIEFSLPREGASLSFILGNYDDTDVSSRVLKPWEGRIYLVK
Method: The α-glucosidase inhibitory activity was measured according to the procedure described in the paper, with slight modifications. […] Immediately, 40 μL PNPG (2.5 mM) was added to each well and reacted at 37 °C for 30 min. […] The total volume of the reaction system was 200 μL. The α-glucosidase inhibition activity was calculated according to the following formula:Inhibition (%) = [1 − (A1 − A2)/(A3 − A4)] × 100(2) A1 = the absorbance of the sample group with α-glucosidase, A2 = the absorbance of the sample control group without α-glucosidase, A3 = the absorbance of the control group without samples, and A4 = the absorbance of the blank control without samples and α-glucosidase.
Results were expressed as IC50 values calculated according to Prism7.0 software.

[2] = ABTS free radical scavenging assay (commercial kit, Trolox standard); settings: compounds
Method: (§1) The antioxidant activities of the crude extracts and isolated compounds were evaluated by implementing 2,2-diphenyl-1-picrylhydrazyl free radical scavenging (DPPH^+), 2,2’-azino-bis (3-ethylbenzothiazoline-6-sulphonic free radical scavenging (ABTS^+), and the ferric reducing antioxidant power (FRAP) assay.
(§2) ABTS^+ and FRAP assays were measured by commercial assay kits (Suzhou Comin Biotechnology Co., Ltd., Suzhou, China). The experimental method was determined according to the method used in the literature. The crude extracts and chemical compounds were dissolved in anhydrous ethanol at concentrations of 800 μg/mL and 40 μM. […] Trolox was used as a standard reference compound to quantitate ABTS^+ and FRAP capacity. The results were expressed in µmol Trolox/g or mol Trolox/mol. The standard curve was drawn using Trolox solutions at a range of concentrations.

[3] = Ferric reducing antioxidant power (FRAP) assay (commercial kit, Trolox standard); settings: compounds
Method: as §1, §2

[4] = DPPH free radical scavenging assay; settings: compounds; 30 min, room temperature
Method: as §1
The DPPH^+ assay was measured according to the previous report with slight modifications. […] The DPPH^+ was dissolved with anhydrous methanol to 0.1 mM.
Then 180 μL DPPH solution and 20 μL sample were mixed in each well of a 96-well plate and incubated for 30 min at room temperature in the dark. […] Ascorbic acid was used as a positive control. The DPPH^+ scavenging activity was calculated according to the following formula:Inhibition (%) = [1 − (A1 − A2)/(A3 − A4)] × 100(1) A1 = absorbance of the sample group with DPPH, A2 = absorbance of the sample control group without DPPH, A3 = absorbance of the control group with DPPH, and A4 = the absorbance of the blank control.

[5] = test system: 3T3-L1 adipocytes; experiment: Glucose uptake in 3T3-L1 adipocytes; format: cell-based, mouse
Method: The 3T3-L1 preadipocytes were cultured and differentiated using the method described earlier with slight modifications. The 3T3-L1 preadipocytes were cultured in high glucose DMEM supplemented with 10% NBCS, 1% P/S, and then starved until the cells reached confluence (day 0). Two days later (day 2), the cells were induced for differentiation with high glucose DMEM supplemented with 10% FBS, 1% P/S, IBMX, DEX, Rosi, and insulin. On day 5, the medium was changed to high glucose DMEM containing 10% FBS, 1% P/S, and 100 nM insulin for one day (day 6). Then the cells were completely differentiated into mature adipocytes.
The glucose uptake test was carried out according to the procedure described in the paper. […] After 48 h of culture, the glucose uptake was measured according to the operating instructions of the glucose content determination kit. Following the glucose uptake test, the cell viability was determined using the CellTiter 96® aqueous cell proliferation test. […] Then the absorbance was measured using microplate reader at 490 nm after incubation at 37 °C for 4 h. The cell viability was calculated according to the following formula:Cell viability rate (%) = […] × 100 (3) A1 = the absorbance of the blank control, A2 = the absorbance of each fraction group, each compound group, or positive control group.

IC50 [4] | inhibition at 20 µM ([1]; at a concentration of 20 μM) | Compound | α-Glucosidase Inhibitory Rate ([1]; at a concentration of 20 μM) | ABTS Assay, Trolox equivalents [2] | FRAP Assay, Trolox equivalents [3] | inhibition at 20 µM [1] | glucose uptake in 3T3-L1 adipocytes ([5]; compounds at 20 μM, 48 h, versus control) | glucose uptake rates of 3T3-L1 adipocytes ([5]; positive control group versus control group, p < 0.001)
> 80 µM | < 50% | COc1cc(O)cc(O)c1C(C)=O [Compound 1, 4,6-dihydroxy-2-methoxyacetophenone] |  | 2.40 ± 0.16 ^a mol Trolox/mol |  |  |  | 
7.41 ± 0.74 µM | < 50% | O=C(O)/C=C/c1ccc(O)c(O)c1 [Compound 5, caffeic acid] |  | 2.15 ± 0.0619 ^abc mol Trolox/mol | 1.73 ± 0.080 ^b mol Trolox/mol |  | weak effect | 
> 80 µM | 5.3 ± 1.8% | COc1cc(/C=C/C(=O)OCC(O)CO)ccc1O (centres unmarked) [Compound 6, 1-O-feruloylglycerol] |  | 1.80 ± 0.0462 ^de mol Trolox/mol | 0.012 ± 0.014 ^d mol Trolox/mol |  |  | 
> 80 µM | 46.1 ± 2.4% | O=C(/C=C/c1ccc(O)cc1)OCC(O)COC(=O)/C=C/c1ccc(O)cc1 [Compound 7, 1,3-O-di-p-coumaroylglycerol] |  | 1.99 ± 0.11 ^cd mol Trolox/mol |  |  |  | 
14.8 ± 1.83 µM | 67% | O=C(/C=C/c1ccc(O)cc1)OCC(O)COC(=O)/C=C/c1ccc(O)c(O)c1 (centres unmarked) [Compound 8, 1-O-p-coumaroyl-3-O-caffeoylglycerol] |  | 1.70 ± 0.066 ^e mol Trolox/mol | 1.42 ± 0.073 ^c mol Trolox/mol |  |  | 
8.82 ± 1.12 µM | 88.8% | O=C(/C=C/c1ccc(O)c(O)c1)OCC(O)COC(=O)/C=C/c1ccc(O)c(O)c1 [Compound 9, 1,3-O-dicaffeoylglycerol] |  | 2.065 ± 0.050 ^bcd mol Trolox/mol | 2.42 ± 0.10 ^a mol Trolox/mol |  |  | 

The remaining lines, values behind:

Compound | IC50 [4] | inhibition at 20 µM ([1]; at a concentration of 20 μM) | α-Glucosidase Inhibitory Rate ([1]; at a concentration of 20 μM) | ABTS Assay, Trolox equivalents [2] | FRAP Assay, Trolox equivalents [3] | inhibition at 20 µM [1] | glucose uptake in 3T3-L1 adipocytes ([5]; compounds at 20 μM, 48 h, versus control) | glucose uptake rates of 3T3-L1 adipocytes ([5]; positive control group versus control group, p < 0.001)
C[C@H]1O[C@H](O[C@H]2[C@H](O)[C@@H](O)[C@@H](O[C@H]3[C@H](O)[C@@H](O)C(O)O[C@@H]3CO)O[C@@H]2CO)[C@H](O)[C@@H](O)[C@@H]1N[C@H]1C=C(CO)[C@@H](O)[C@H](O)[C@H]1O (some centres unmarked) [Acarbose, reference compound] |  |  | 99.4 ± 0.0% |  |  |  |  | 
O=C1O[C@H]([C@@H](O)CO)C(O)=C1O [Ascorbic acid, reference compound] | 19.8 ± 1.27 µM |  |  | 1.66 ± 0.050 ^e mol Trolox/mol | 1.68 ± 0.063 ^b mol Trolox/mol |  |  | 
COc1cc(OC2OC(CO)C(O)C(O)C2O)cc(O)c1C(C)=O [Compound 2, 4-O-β-D-glucopyranosyl-2-hydroxy-6-methoxyacetophenone] | > 80 µM | 22.6 ± 3.4% |  | 0.87 ± 0.11 ^f mol Trolox/mol |  |  |  | 
CC(=O)c1c(O)cc(O)cc1OC1OC(CO)C(O)C(O)C1O [Compound 3, 2,4,6-trihydroxy-acetophenone 2-O-β-D-glucoside] | > 80 µM | < 50% |  | 1.97 ± 0.079 ^cd mol Trolox/mol |  |  |  | 
O=C(O)/C=C/c1ccc(O)cc1 [Compound 4, p-coumaric acid] | > 80 µM |  |  | 2.28± 0.10 ^ab mol Trolox/mol |  | < 50% |  | 
COc1cc(-c2cc(=O)c3c(O)cc(O)cc3o2)cc(OC)c1O [Compound 10, tricin] | > 80 µM |  |  | 1.64 ± 0.14 ^e mol Trolox/mol |  | 20.8 ± 7.3% |  | 
O=c1cc(-c2ccc(O)c(O)c2)oc2cc(O[C@@H]3O[C@H](CO)[C@@H](O)[C@H](O)[C@H]3O)cc(O)c12 [Compound 12, luteolin-7-O-β-D-glucopyranoside] | 7.28 ± 1.48 µM |  |  | 1.86 ± 0.075 ^de mol Trolox/mol | 1.31 ± 0.057 ^c mol Trolox/mol | 21.9 ± 6% |  | 
insulin |  |  |  |  |  |  |  | noticeably promoted
